Experimental data as given in patent publication US20130338183A1, “COMPOSITIONS AND METHODS FOR MOBILIZING STEM CELLS” (The Johns Hopkins University, priority 2010, published 2013).

Test system: Lin-CD133+ cells in peripheral blood
Test: Mobilization of bone marrow stem cells: Lin-CD133+ cells in peripheral blood by CBC and flow cytometry after subcutaneous injection
Assay type: in vivo
Conditions: low dose FK-506 (0.05 mg/kg, 0.1 mg/kg) subcutaneous, 3 hours after injection, Lewis rats
Source text: Rat Strains and Care. Lewis (RT1^1) rats were purchased from Harlan ague-Dawley (Indianapolis, Ind.) and used at 8-10 weeks of age. Animals were maintained in the specific pathogen-free facility of Johns Hopkins Medical Institutions. Animals were cared for according to NIH guidelines and under a protocol approved by the Johns Hopkins University Animal Care Committee.
Experimental Groups and Animal Treatment. Lewis rats were divided by six groups including control group (treated with same volume of saline) and low dose of FK-506 (0.05 mg, 0.1 mg or 1.0 mg/kg). FK506 was injected subcutaneously. Animals were sacrificed at 3 hours after injection. Spleen and peripheral blood were collected. Blood cell count was performed in animal pathology laboratory at Johns Hopkins.
Flow Cytometry. Single-cell suspensions (5×10^5) of peripheral blood monocytes were analyzed for lineage negative and CD133 expression. Nonspecific antibody binding was blocked with goat and rat serum (Sigma) for 30 minutes.
In this study, lineage negative (Lin−) CD133+ stem cell population in peripheral blood and spleen were quantified after FK-506 treatment. Complete blood count (CBC) was measured and stem cell markers were quantified by flow cytometry. The absolute number of stem cells was calculated as WBC (−thous./uL)×% of stem cells.

How did the “increase of absolute number of Lin-CD133+ cells in peripheral blood compared to saline treated animals” value turn out when `C=CC[C@@H]1/C=C(\C)C[C@H](C)C[C@H](OC)[C@H]2O[C@@](O)(C(=O)C(=O)N3CCCC[C@H]3C(=O)O[C@H](/C(C)=C/[C@@H]3CC[C@@H](O)[C@H](OC)C3)[C@H](C)[C@@H](O)CC1=O)[C@H](C)C[C@@H]2OC` [FK-506, Tacrolimus] was run?
Its value is “about 3 times”.
